Consider one molecule from patent US8821922B2, “Compositions and methods for polymer-caged liposomes” (Northwestern University, priority 2007, dated 2014).

This assay concerns KB epidermoid carcinoma cells. The experiment in a line: Cytotoxicity study of doxorubicin-loaded liposomes (Guava ViaCount Assay). Particulars: Homo sapiens, 2 h exposure, further 48 h in fresh medium, viable cells counted by Guava ViaCount. The assay is classed as cell-based. How it is done: Cytotoxictity assay were conducted using the Guava ViaCount Assay system.
Initially, acetylene-functionalized PCLs were prepared using propargyl-modified diamine cross-linkers. Azido-poly(ethylene glycol)-modified folates were then conjugated to the acetylene groups on the surface of PCLs catalyzed by Cu(I) (FIG. 9) to present folate groups on the PCL surface. The folate conjugation to doxorubicin-loaded PCLs indeed increased the drug efficacy against cancer cells as shown through an in vitro model study against KB epidermoid carcinoma cells.
KB cells were continuously cultured in folic acid-free medium supplemented with 10% heat-inactivated fetal bovine serum at 37° C. in a humidified atmosphere containing 5% CO2. The cells were seeded into several 48-well plates at 100,000 cells per well. The plates were then returned to the incubator and the cells were allowed to grow to confluence for 24 h. The media in the wells were replaced with the pre-prepared growth medium-drug-loaded PCL mixture (200 μL of solution at the appropriate Doxorubicin concentrations). The PCL-treated cell cultures were then further incubated for 2 h in a humidified atmosphere containing 5% CO2 at 37° C., after which the growth medium—drug-loaded PCL mixture was removed by aspiration. […] The viable cells were then counted by Guava ViaCount Assay.

Each structure is given as a SMILES string.

Usually IC50 stands for the point on the concentration scale where inhibition reaches its midpoint. A lower IC50 goes with greater potency.

`COc1cccc2c1C(=O)c1c(O)c3c(c(O)c1C2=O)C[C@@](O)(C(=O)CO)C[C@@H]3O[C@H]1C[C@H](N)[C@H](O)[C@H](C)O1` [free DXR, doxorubicin] displayed an IC50 of 100 nM.
